From patent US20130345145A1, “ATIP3 AND BIOLOGICALLY ACTIVE FRAGMENTS THEREOF FOR USE IN THE TREATMENT OF CANCER” (INSTITUT NATIONAL DE LA SANTE ET DE LA RECHERCHE MEDICALE …, priority 2011, published 2013)
Where no end group is shown, it is not given here.

Key:
MCF7 breast cancer cells = assay: Xcelligence cell proliferation of stable MCF7 clones; assay type: cell-based; conditions: clone D2CC3, MCF7, FIG. 13
Procedure: Stable clones of MCF7 breast cancer cells expressing moderate levels of GFP-D2N (clones D2N6 and D2N8), GFP-D2C (clone D2C6 and a pool of positive cells) and GFP-D2CC (clone Cl3) have been selected in G418 (1 mg/ml)-containing medium for 4 weeks. Detectable expression of a single polypeptide of expected molecular weight in each case was confirmed by western blotting using anti-GFP antibodies.
Cell proliferation was measured using the Xcelligence technology (Roche). Briefly, cell clones were seeded at 15000 cells/well on 96 wells containing gold electrodes and cellular impedance was monitored in real-time for 40 hours.

microtubule cytoskeleton = assay: Immunofluorescence intracellular localization in RPE1 cells; assay type: cell-based, Human; conditions: RPE1 cells transfected 24 hrs, data not shown
Procedure: Immunofluorescence study was performed as example 2. Briefly, Human retinal pigment epithelial (RPE1) cells were transfected for 24 hrs with GFP-D2N, GFP-D2C or GFP-D2CC constructs prior to fixation in ice-cold methanol and incubation with anti-GFP antibodies as described (page 21, lines 1-9).

Substance: D2CC: domain of ATIP3BD, amino-acid positions 817-874 of SEQ ID NO: 1, 58 amino-acids polypeptide, expressed as GFP fusion (SGNAAVIKYEEKPPKPAFQNGSSGSFYLKPLVSRAHVHLMKTPPKGPSRKNLFTALNA; also: expressed as GFP fusion; listed as Homo sapiens)
- factor of reduction of proliferation as compared to clone expressing GFP-ATIP3 (MCF7 breast cancer cells): 2
- intracellular localization (microtubule cytoskeleton): remains diffuse in the cytosol
